≈ marks a conversion by molar mass, not a printed value. Like-named read-outs stand apart in the source and are kept apart here.
What was measured:
[1] = system: S. aureus ATCC 29213; test: MBC assay; format: cell-based, Staphylococcus aureus
Summary of the method: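 Follows an MIC assay; samples sub-cultured onto non-selective agar and inspected visually for growth to give the minimum lethal concentration. Culture on Mueller-Hinton medium, pH 7.2, aerobic, 37° C, 24 hours.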

[2] = system: P. acnes NCTC 737; test: MIC assay; format: cell-based, Propionibacterium acnes
Summary of the method: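 Broth microdilution in Wilkins-Chalgren Anaerobe broth pH 6.0, inoculated with freshly grown P. acnes NCTC 737 and incubated anaerobically at 37° C for 72 hours. MIC is the lowest compound concentration leaving the well visually clear, read on a light box. Run in duplicate with medium-only and solvent-plus-inoculum controls.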

[3] = system: P. acnes NCTC 737; test: MBC assay; format: cell-based, Propionibacterium acnes
Summary of the method: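 Plates were then checked visually for growth. The MBC is the lowest lethal concentration; cultures were grown on Wilkins-Chalgren Anaerobe Medium at pH 6.0.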

[4] = system: P. acnes NCTC 737; test: Supplemented disc diffusion assay; format: cell-based, Propionibacterium acnes; conditions: for zone of inhibition at 200 µg/disc: Cutibacterium acnes, NCTC737, 72 h; for effect of lipid on antimicrobial activity: activity increases in the presence of lipid
Summary of the method: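 Propionibacterium discs loaded with 200 μg compound on Wilkins-Chalgren Anaerobe agar, pH 6.0, supplemented with Tween 80 (1% v/v) and NaCl (100 mM); anaerobic incubation at 37 °C for 72 h. Inhibition zone diameter measured by automated zone sizer.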

[5] = system: S. aureus ATCC 29213; test: MIC assay; format: cell-based, Staphylococcus aureus
Summary of the method: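 Broth microdilution in Mueller-Hinton broth at pH 7.2, incubated aerobically at 37 °C for 24 h and run in duplicate with medium-only and solvent/inoculum controls. The MIC was the lowest concentration whose well stayed visibly clear.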

[6] = system: S. aureus ATCC 29213; test: Supplemented disc diffusion assay; format: cell-based, Staphylococcus aureus; conditions: for zone of inhibition at 200 µg/disc: Staphylococcus aureus, ATCC29213, 24 h
Summary of the method: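 Paper discs loaded with compound (200 μg per disc for most assays) placed on inoculated Mueller-Hinton agar, pH 7.2, supplemented with 5% v/v defibrinated horse blood, 1% v/v Tween 80 and 100 mM NaCl. Aerobic incubation at 37° C for 24 h; inhibition zone diameter measured.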

[7] = system: S. aureus ATCC 29213; test: Disc diffusion assay (DDA); format: cell-based, Staphylococcus aureus; conditions: for zone of inhibition at 200 µg/disc: Staphylococcus aureus
Summary of the method: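 Paper discs loaded with test compound (usually 200 μg/disc), solvent evaporated ≥30 min, placed on inoculated Mueller-Hinton agar pH 7.2. Incubated aerobically at 37 °C for 24 h; inhibition zone diameter measured and area calculated as π(D/2)^2.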

[8] = system: P. acnes NCTC 737; test: Disc diffusion assay (DDA); format: cell-based, Propionibacterium acnes; conditions: for zone of inhibition at 200 µg/disc: Cutibacterium acnes
[9] = Staphylococcus aureus, ATCC29213, read-out: MBC
[10] = Cutibacterium acnes, NCTC737, P. acnes NCTC 737, Wilkins-Chalgren broth pH 6.0, anaerobic, 37° C., 72 hours, read-out: MIC
[11] = Cutibacterium acnes, NCTC737, P. acnes NCTC 737, read-out: MBC
[12] = P. acnes NCTC 737, Tween 80 at 1% v/v, 200 μg per disc (2,6-dimethoxy-p-benzoquinone 100 μg), read-out: DDA + lipid
[13] = P. acnes NCTC 737, sodium chloride 100 mM, 200 μg per disc (2,6-dimethoxy-p-benzoquinone 100 μg), read-out: DDA + salt
[14] = Staphylococcus aureus, ATCC29213, S. aureus ATCC 29213, Mueller-Hinton broth pH 7.2, aerobic, 37° C., 24 hours, read-out: MIC
[15] = S. aureus ATCC 29213, Tween 80 at 1% v/v, 200 μg per disc (thymoquinone 50 μg, 2,6-dimethoxy-p-benzoquinone 100 μg), read-out: DDA + lipid
[16] = S. aureus ATCC 29213, defibrinated horse blood 5% v/v, 200 μg per disc (thymoquinone 50 μg, 2,6-dimethoxy-p-benzoquinone 100 μg), read-out: DDA + blood
[17] = S. aureus ATCC 29213, sodium chloride 100 mM, 200 μg per disc (thymoquinone 50 μg, 2,6-dimethoxy-p-benzoquinone 100 μg), read-out: DDA + salt
[18] = ATCC29213, S. aureus ATCC 29213, unsupplemented agar, 200 μg per disc (thymoquinone 50 μg, 2,6-dimethoxy-p-benzoquinone 100 μg), read-out: DDA (diameter of zone of inhibition)
[19] = NCTC737, P. acnes NCTC 737, unsupplemented agar, 200 μg per disc (2,6-dimethoxy-p-benzoquinone 100 μg), read-out: DDA (diameter of zone of inhibition)
[20] = P. acnes NCTC 737, Wilkins-Chalgren broth pH 6.0, anaerobic, 37° C., 72 hours
[21] = P. acnes NCTC 737, Tween 80 at 1% v/v, 200 μg per disc (2,6-dimethoxy-p-benzoquinone 100 μg)
[22] = P. acnes NCTC 737, sodium chloride 100 mM, 200 μg per disc (2,6-dimethoxy-p-benzoquinone 100 μg)
[23] = S. aureus ATCC 29213, Mueller-Hinton broth pH 7.2, aerobic, 37° C., 24 hours
[24] = S. aureus ATCC 29213, Tween 80 at 1% v/v, 200 μg per disc (thymoquinone 50 μg, 2,6-dimethoxy-p-benzoquinone 100 μg)
[25] = S. aureus ATCC 29213, defibrinated horse blood 5% v/v, 200 μg per disc (thymoquinone 50 μg, 2,6-dimethoxy-p-benzoquinone 100 μg)
[26] = S. aureus ATCC 29213, sodium chloride 100 mM, 200 μg per disc (thymoquinone 50 μg, 2,6-dimethoxy-p-benzoquinone 100 μg)
[27] = S. aureus ATCC 29213, unsupplemented agar, 200 μg per disc (thymoquinone 50 μg, 2,6-dimethoxy-p-benzoquinone 100 μg)
[28] = P. acnes NCTC 737, unsupplemented agar, 200 μg per disc (2,6-dimethoxy-p-benzoquinone 100 μg)

CC1=CC(=O)C=CC1=O [2-methyl-p-benzoquinone]
MIC/MBC ratio [1]: 1
MBC ([1]; Staphylococcus aureus, ATCC29213): 15.6 µg/mL (≈ 128 µM)
activity against P. acnes NCTC 737 (in words) [2]: strongly so
MIC ([2]; Cutibacterium acnes, NCTC737, 72 h, pH 6): 15.6 µg/mL (≈ 128 µM)
MBC ([3]; Cutibacterium acnes, NCTC737): 31.2 µg/mL (≈ 256 µM)
MIC/MBC ratio ([3]; P. acnes NCTC 737): 0.5
zone of inhibition at 200 µg/disc ([4]; read-out: DDA + lipid): 48.9 mm
zone of inhibition at 200 µg/disc ([4]; read-out: DDA + salt): 42.6 mm
effect of lipid on antimicrobial activity ([4]; P. acnes NCTC 737): potentiated
MIC ([5]; Staphylococcus aureus, ATCC29213, 24 h, pH 7.2): 15.6 µg/mL (≈ 128 µM)
zone of inhibition at 200 µg/disc ([6]; read-out: DDA + blood): 15.9 mm
zone of inhibition at 200 µg/disc ([6]; read-out: DDA + lipid): 35.6 mm
zone of inhibition at 200 µg/disc ([6]; read-out: DDA + salt): 35 mm
zone of inhibition at 200 µg/disc ([7]; ATCC29213, read-out: DDA (diameter of zone of inhibition)): 35.1 mm
zone of inhibition at 200 µg/disc ([8]; NCTC737, read-out: DDA (diameter of zone of inhibition)): 35.9 mm

O=[N+]([O-])c1c(O)cccc1O [2-nitroresorcinol]
MIC/MBC ratio [1]: <0.5
MBC [1, 9]: > 250 µg/mL
MIC [2, 10]: 125 µg/mL (≈ 806 µM)
MBC [3, 11]: > 250 µg/mL
MIC/MBC ratio ([3]; P. acnes NCTC 737): <0.5
zone of inhibition at 200 µg/disc [4, 12]: 0 mm
zone of inhibition at 200 µg/disc [4, 13]: 12.7 mm
MIC [5, 14]: 125 µg/mL (≈ 806 µM)
zone of inhibition at 200 µg/disc [6, 15]: 0 mm
zone of inhibition at 200 µg/disc [6, 16]: 0 mm
zone of inhibition at 200 µg/disc [6, 17]: 12.8 mm
zone of inhibition at 200 µg/disc [7, 18]: 10.5 mm
zone of inhibition at 200 µg/disc [8, 19]: 0 mm

CC(C)(C)C1=CC(=O)C=CC1=O [2-t-butyl-p-benzoquinone]
MIC/MBC ratio [1]: 1
MBC [1, 9]: 15.6 µg/mL (≈ 95 µM)
MIC [2, 10]: 7.8 µg/mL (≈ 47.5 µM)
MBC [3, 11]: 15.6 µg/mL (≈ 95 µM)
MIC/MBC ratio ([3]; P. acnes NCTC 737): 0.5
zone of inhibition at 200 µg/disc [4, 12]: > 90 mm
zone of inhibition at 200 µg/disc [4, 13]: > 90 mm
effect of lipid on antimicrobial activity ([4]; P. acnes NCTC 737): potentiated
MIC [5, 14]: 15.6 µg/mL (≈ 95 µM)
zone of inhibition at 200 µg/disc [6, 15]: > 90 mm
zone of inhibition at 200 µg/disc [6, 16]: 10.9 mm
zone of inhibition at 200 µg/disc [6, 17]: 54.7 mm
zone of inhibition at 200 µg/disc [7, 18]: 58.5 mm
zone of inhibition at 200 µg/disc [8, 19]: 60.8 mm

CC(C)(C)C1=CC(=O)C(=O)C(C(C)(C)C)=C1 [3,5-di-t-butyl-o-benzoquinone]
MIC/MBC ratio [1]: 1
MBC [1, 9]: 7.8 µg/mL (≈ 35.4 µM)
MIC [2, 10]: 15.6 µg/mL (≈ 70.8 µM)
MBC [3, 11]: 15.6 µg/mL (≈ 70.8 µM)
MIC/MBC ratio ([3]; P. acnes NCTC 737): 1
zone of inhibition at 200 µg/disc [4, 12]: 26.4 mm
zone of inhibition at 200 µg/disc [4, 13]: 40.5 mm
MIC [5, 14]: 7.8 µg/mL (≈ 35.4 µM)
zone of inhibition at 200 µg/disc [6, 15]: 17.4 mm
zone of inhibition at 200 µg/disc [6, 16]: 15.9 mm
zone of inhibition at 200 µg/disc [6, 17]: 23 mm
zone of inhibition at 200 µg/disc [7, 18]: 23.4 mm
zone of inhibition at 200 µg/disc [8, 19]: 31.8 mm

CC(C)(C)c1cc(O)c(O)c(C(C)(C)C)c1 [3,5-di-t-butylcatechol]
MIC/MBC ratio [1]: 1
MBC [1, 9]: 7.8 µg/mL (≈ 35.1 µM)
MIC [2, 10]: 7.8 µg/mL (≈ 35.1 µM)
MBC [3, 11]: 15.6 µg/mL (≈ 70.2 µM)
MIC/MBC ratio ([3]; P. acnes NCTC 737): 0.5
zone of inhibition at 200 µg/disc [4, 12]: 0 mm
zone of inhibition at 200 µg/disc [4, 13]: 37.3 mm
MIC [5, 14]: 7.8 µg/mL (≈ 35.1 µM)
zone of inhibition at 200 µg/disc [6, 15]: 10.9 mm
zone of inhibition at 200 µg/disc [6, 16]: 11.9 mm
zone of inhibition at 200 µg/disc [6, 17]: 19.7 mm
zone of inhibition at 200 µg/disc [7, 18]: 18.8 mm
zone of inhibition at 200 µg/disc [8, 19]: 35.9 mm

CC(C)(C)c1cc(C(C)(C)C)c(O)cc1O [4,6-di-t-butylresorcinol]
MIC/MBC ratio [1]: 0.5
MBC [1, 9]: 15.6 µg/mL (≈ 70.2 µM)
MIC [2, 10]: 7.8 µg/mL (≈ 35.1 µM)
MBC [3, 11]: 15.6 µg/mL (≈ 70.2 µM)
MIC/MBC ratio ([3]; P. acnes NCTC 737): 0.5
zone of inhibition at 200 µg/disc [4, 12]: 0 mm
zone of inhibition at 200 µg/disc [4, 13]: 37.8 mm
MIC [5, 14]: 7.8 µg/mL (≈ 35.1 µM)
zone of inhibition at 200 µg/disc [6, 15]: 0 mm
zone of inhibition at 200 µg/disc [6, 16]: 0 mm
zone of inhibition at 200 µg/disc [6, 17]: 8.4 mm
zone of inhibition at 200 µg/disc [7, 18]: 8.09 mm
zone of inhibition at 200 µg/disc [8, 19]: 36.6 mm

Oc1c(Cl)c(Cl)c(O)c(Cl)c1Cl [tetrachloro-p-hydroquinone]
MBC [1]: 125 µg/mL (≈ 504 µM)
MIC/MBC ratio [1]: 1
MIC [2, 20]: 31.25 µg/mL (≈ 126 µM)
MBC ([3]; P. acnes NCTC 737): 31.25 µg/mL (≈ 126 µM)
MIC/MBC ratio ([3]; P. acnes NCTC 737): 1
DDA + lipid [4, 21]: 0.0 mm
DDA + salt [4, 22]: 28.27 mm
MIC [5, 23]: 125 µg/mL (≈ 504 µM)
DDA + lipid [6, 24]: 14.69 mm
DDA + blood [6, 25]: 9.38 mm
DDA + salt [6, 26]: 16.88 mm
DDA (diameter of zone of inhibition) [7, 27]: 16.25 mm
DDA (diameter of zone of inhibition) [8, 28]: 25.37 mm

Oc1c(F)c(F)c(O)c(F)c1F [tetrafluoro-p-hydroquinone]
MBC [1]: 125 µg/mL (≈ 687 µM)
MIC/MBC ratio [1]: 1
MIC [2, 20]: 62.5 µg/mL (≈ 343 µM)
MBC ([3]; P. acnes NCTC 737): 125 µg/mL (≈ 687 µM)
MIC/MBC ratio ([3]; P. acnes NCTC 737): 0.5
DDA + lipid [4, 21]: 0.0 mm
DDA + salt [4, 22]: 36.35 mm
MIC [5, 23]: 125 µg/mL (≈ 687 µM)
DDA + lipid [6, 24]: 9.38 mm
DDA + blood [6, 25]: 0.0 mm
DDA + salt [6, 26]: 11.25 mm
DDA (diameter of zone of inhibition) [7, 27]: 10.83 mm
DDA (diameter of zone of inhibition) [8, 28]: 33.86 mm
